# In PubChem BioAssay (NCI):
#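 These data come from cells grown in 96-well plates and exposed to compound for 48 hours at five concentrations. TGI: concentration producing complete growth inhibition.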
# Columns and labels:
# Assay in all cases: NCI-60 cell line screen, 48 h
# SF-295 CNS = test system: SF-295 CNS
# MDA-N = test system: MDA-N
# EKVX NSCLC = test system: EKVX NSCLC
# HT29 colon = test system: HT29 colon
# CAKI-1 renal = test system: CAKI-1 renal
# CCRF-CEM leukemia = test system: CCRF-CEM leukemia
# MDA-MB-435 = test system: MDA-MB-435
# NCI-H23 lung = test system: NCI-H23 lung
# NCI-H460 lung = test system: NCI-H460 lung
# U251 CNS = test system: U251 CNS
# SK-MEL-28 melanoma = test system: SK-MEL-28 melanoma
# SF-539 CNS = test system: SF-539 CNS
# SK-MEL-2 melanoma = test system: SK-MEL-2 melanoma
# TK-10 renal = test system: TK-10 renal
# T-47D breast = test system: T-47D breast
# OVCAR-3 ovarian = test system: OVCAR-3 ovarian
# DU-145 prostate = test system: DU-145 prostate
# SW-620 colon = test system: SW-620 colon
# UO-31 renal = test system: UO-31 renal
# SF-268 CNS = test system: SF-268 CNS
# PC-3 prostate = test system: PC-3 prostate
# HL-60(TB) leukemia = test system: HL-60(TB) leukemia
# NCI-H226 lung = test system: NCI-H226 lung
# MDA-MB-231 breast = test system: MDA-MB-231 breast
# A498 renal = test system: A498 renal
# UACC-257 melanoma = test system: UACC-257 melanoma
# SK-MEL-5 melanoma = test system: SK-MEL-5 melanoma
# SK-OV-3 ovarian = test system: SK-OV-3 ovarian
# SR leukemia = test system: SR leukemia
# HS 578T breast = test system: HS 578T breast
# OVCAR-5 ovarian = test system: OVCAR-5 ovarian
# M14 melanoma = test system: M14 melanoma
# LOX IMVI melanoma = test system: LOX IMVI melanoma
# 786-0 renal = test system: 786-0 renal
# MCF7 breast = test system: MCF7 breast
# MOLT-4 leukemia = test system: MOLT-4 leukemia
# OVCAR-4 ovarian = test system: OVCAR-4 ovarian
# KM12 colon = test system: KM12 colon
# K-562 leukemia = test system: K-562 leukemia
# OVCAR-8 ovarian = test system: OVCAR-8 ovarian
# RPMI-8226 leukemia = test system: RPMI-8226 leukemia
# HCT-116 colon = test system: HCT-116 colon
# HCT-15 colon = test system: HCT-15 colon
# RXF 393 renal = test system: RXF 393 renal
# NCI/ADR-RES ovarian = test system: NCI/ADR-RES ovarian
# NCI-H522 lung = test system: NCI-H522 lung
# HOP-62 NSCLC = test system: HOP-62 NSCLC
# HOP-92 NSCLC = test system: HOP-92 NSCLC
# ACHN renal = test system: ACHN renal
# IGROV1 ovarian = test system: IGROV1 ovarian
# HCC-2998 colon = test system: HCC-2998 colon
compound,measurement,setting,value
CCn1c2nc(=O)n(CCCCCCCCSC(c3ccccc3)(c3ccccc3)c3ccccc3)c(=O)c-2nc2ccccc21,TGI,SF-295 CNS,> 100 µM
same,TGI,MDA-N,> 100 µM
same,TGI,EKVX NSCLC,> 100 µM
same,TGI,HT29 colon,18.1 µM
same,TGI,CAKI-1 renal,> 100 µM
same,TGI,CCRF-CEM leukemia,> 100 µM
same,TGI,MDA-MB-435,> 100 µM
same,TGI,NCI-H23 lung,> 100 µM
same,TGI,NCI-H460 lung,> 100 µM
same,TGI,U251 CNS,> 100 µM
same,TGI,SK-MEL-28 melanoma,> 100 µM
same,TGI,SF-539 CNS,> 100 µM
same,TGI,SK-MEL-2 melanoma,> 100 µM
same,TGI,TK-10 renal,> 100 µM
same,TGI,T-47D breast,> 100 µM
same,TGI,OVCAR-3 ovarian,> 100 µM
same,TGI,DU-145 prostate,> 100 µM
same,TGI,SW-620 colon,> 100 µM
same,TGI,UO-31 renal,> 100 µM
same,TGI,SF-268 CNS,> 100 µM
same,TGI,PC-3 prostate,> 100 µM
same,TGI,HL-60(TB) leukemia,6.51 µM
same,TGI,NCI-H226 lung,> 100 µM
same,TGI,MDA-MB-231 breast,> 100 µM
same,TGI,A498 renal,> 100 µM
same,TGI,UACC-257 melanoma,> 100 µM
same,TGI,SK-MEL-5 melanoma,22.9 µM
same,TGI,SK-OV-3 ovarian,> 100 µM
same,TGI,SR leukemia,> 100 µM
same,TGI,HS 578T breast,> 100 µM
same,TGI,OVCAR-5 ovarian,> 100 µM
same,TGI,M14 melanoma,31.6 µM
same,TGI,LOX IMVI melanoma,> 100 µM
same,TGI,786-0 renal,> 100 µM
same,TGI,MCF7 breast,> 100 µM
same,TGI,MOLT-4 leukemia,24.6 µM
same,TGI,OVCAR-4 ovarian,> 100 µM
same,TGI,KM12 colon,> 100 µM
same,TGI,K-562 leukemia,> 100 µM
same,TGI,OVCAR-8 ovarian,> 100 µM
same,TGI,RPMI-8226 leukemia,> 100 µM
same,TGI,HCT-116 colon,> 100 µM
same,TGI,HCT-15 colon,> 100 µM
same,TGI,RXF 393 renal,> 100 µM
same,TGI,NCI/ADR-RES ovarian,> 100 µM
same,TGI,NCI-H522 lung,> 100 µM
same,TGI,HOP-62 NSCLC,> 100 µM
same,TGI,HOP-92 NSCLC,53.1 µM
same,TGI,ACHN renal,60.8 µM
same,TGI,IGROV1 ovarian,> 100 µM
same,TGI,HCC-2998 colon,19.6 µM
